In brackets after ≈: the same amount, converted by molar mass.
Conditions: buffer; pH 7.4; 200.0 µM

Which solubility kinetic does the source give for `CCN(C(=O)CSc1nnc(-c2ccc(F)cc2)n1C)C1CCS(=O)(=O)C1` (stereo not drawn) here?
The solubility kinetic was > 61.9 µg/mL.

Which solubility kinetic does the source give for `CN(Cc1cn(C)nc1-c1ccccc1F)Cc1nccn1C` here?
Its solubility kinetic is > 47 µg/mL.

For `CCOn1c(=O)c(-c2cc(OC)ccc2OC)[n+]([O-])c2ccccc21`, which solubility kinetic is on record?
Its solubility kinetic is > 51.4 µg/mL.

With `Nc1ccccc1S(=O)(=O)C(F)F` as the molecule, how does the solubility kinetic read?
The solubility kinetic was 28.4 µg/mL (≈ 137 µM).

For `CC(=O)Oc1c(C(C)C)cc(N(C(C)=O)c2ccccc2)cc1C(C)C`, which solubility kinetic is on record?
The solubility kinetic was 41.5 µg/mL (≈ 117 µM).

Which solubility kinetic does the source give for `CSc1ccc(C(=S)N2CCCCCC2)cc1` here?
Its solubility kinetic is 12.9 µg/mL (≈ 48.6 µM).

Which solubility kinetic does the source give for `NC(=O)c1ccccc1NC(=O)N1CCOCC1` here?
Its solubility kinetic is 37.1 µg/mL (≈ 149 µM).

For `COc1cc(C2(c3ccc(O)c(OC)c3)C(=O)N(C)c3ccc(C)cc32)ccc1O`, which solubility kinetic is on record?
The solubility kinetic was 51.4 µg/mL (≈ 127 µM).

Which solubility kinetic does the source give for `CCN(CC(=O)Nc1cc(Cl)ccc1C)C(=O)CC1CCCC1` here?
Its solubility kinetic is > 50.5 µg/mL.

With `COc1ccccc1NC(=O)c1ccc(NC(=O)CN2CCCCC2)cc1.O=C(O)C(=O)O` as the molecule, how does the solubility kinetic read?
Its solubility kinetic is > 68.6 µg/mL.

For `CC1(C)CC(C(=O)Nc2ccccc2)C(=O)O1` (stereo not drawn), which solubility kinetic is on record?
The solubility kinetic was > 35 µg/mL.

With `Cc1cccc2c1NC(=O)C21OCC(CO)([N+](=O)[O-])CO1` (stereo not drawn) as the molecule, how does the solubility kinetic read?
The solubility kinetic was 24.8 µg/mL (≈ 84.3 µM).

For `CCOc1ccc(N(C)Cc2cc(=O)oc3ccc(OCC)cc23)cc1`, which solubility kinetic is on record?
The solubility kinetic was 2.3 µg/mL (≈ 6.51 µM).

Which solubility kinetic does the source give for `CCOCCCNC(c1ccccc1)c1ccncc1` (stereo not drawn) here?
Its solubility kinetic is 38 µg/mL (≈ 141 µM).

With `Cc1cc([N+](=O)[O-])nn1CC(=O)NC(C)c1ccccc1` (stereo not drawn) as the molecule, how does the solubility kinetic read?
The solubility kinetic was > 43.2 µg/mL.

Which solubility kinetic does the source give for `Cc1ccc(NS(=O)(=O)c2cccs2)nc1` here?
The solubility kinetic was > 38.1 µg/mL.

Which solubility kinetic does the source give for `CC1CN(C(=O)c2ccccc2NS(=O)(=O)c2ccc(Cl)cc2)CC(C)O1` (stereo not drawn) here?
Its solubility kinetic is > 61.3 µg/mL.

Which solubility kinetic does the source give for `COCCNC(=O)COCc1cc(-c2ccc3c(c2)OCO3)on1` here?
The solubility kinetic was > 50.1 µg/mL.

For `O=C1/C(=C\c2ccc(O)c(O)c2)N=C2CCCCCN12`, which solubility kinetic is on record?
Its solubility kinetic is > 40.8 µg/mL.

With `CCN(c1cccc2ccccc12)S(=O)(=O)c1ccc(Cl)nc1` as the molecule, how does the solubility kinetic read?
The solubility kinetic was 7.9 µg/mL (≈ 22.8 µM).

With `COc1ccc(NS(=O)(=O)c2cc(N)ccc2N2CCCC2)cc1` as the molecule, how does the solubility kinetic read?
The solubility kinetic was 47.6 µg/mL (≈ 137 µM).

Which solubility kinetic does the source give for `COC(=O)c1[nH]c2ccccc2c1NC(=O)c1c(F)cccc1F` here?
Its solubility kinetic is 1.1 µg/mL (≈ 3.33 µM).

With `Cc1ccccc1N(CC(=O)N1CCCCCC1)S(C)(=O)=O` as the molecule, how does the solubility kinetic read?
The solubility kinetic was > 48.7 µg/mL.

Which solubility kinetic does the source give for `Cc1ccc(-c2csc(-c3cc(C)on3)n2)cc1` here?
The solubility kinetic was < 0.3 µg/mL.

Which solubility kinetic does the source give for `O=C(NCc1cccnc1)C1CCN(S(=O)(=O)c2cc([N+](=O)[O-])ccc2Cl)CC1` here?
The solubility kinetic was > 65.8 µg/mL.

With `CCN(CC)S(=O)(=O)c1ccc(NCc2ccccn2)nc1` as the molecule, how does the solubility kinetic read?
Its solubility kinetic is > 48.1 µg/mL.

With `CCCNC(=O)COC(=O)/C(C#N)=C/c1cc(C)n(CCC)c1C` as the molecule, how does the solubility kinetic read?
Its solubility kinetic is 1.6 µg/mL (≈ 4.83 µM).

For `CC(=O)c1ccc(N2C(=O)CC(N3CCN(S(=O)(=O)c4cc(C)ccc4C)CC3)C2=O)cc1` (stereo not drawn), which solubility kinetic is on record?
The solubility kinetic was 56.9 µg/mL (≈ 121 µM).

For `COCCCNC(=S)Nc1cccc(SC)c1`, which solubility kinetic is on record?
The solubility kinetic was > 40.6 µg/mL.

Which solubility kinetic does the source give for `O=C(CN1c2cccc3cccc(c23)S1(=O)=O)NCc1ccc(F)cc1` here?
Its solubility kinetic is 27.4 µg/mL (≈ 74 µM).

For `CCC(C)(C)c1ccc(OCC(=O)Nc2ccncc2)cc1`, which solubility kinetic is on record?
Its solubility kinetic is 2.6 µg/mL (≈ 8.71 µM).

Which solubility kinetic does the source give for `Cn1cc(S(=O)(=O)N2CCCC(C(=O)O)C2)cn1` (stereo not drawn) here?
Its solubility kinetic is > 41 µg/mL.

With `CCC(C)(C)NC(=O)C(OC(=O)c1ccco1)c1ccccc1F` (stereo not drawn) as the molecule, how does the solubility kinetic read?
The solubility kinetic was 22.1 µg/mL (≈ 66.3 µM).

With `O=C(O)c1ccc(NC(=O)C2C3CCC(O3)C2C(=O)O)cc1` (stereo not drawn) as the molecule, how does the solubility kinetic read?
Its solubility kinetic is > 45.8 µg/mL.

With `O=C(COC(=O)[C@H](Cc1ccccc1)NC(=O)c1ccco1)Nc1ccccc1OC(F)F` as the molecule, how does the solubility kinetic read?
Its solubility kinetic is 64 µg/mL (≈ 140 µM).

Which solubility kinetic does the source give for `O=C(Nc1cccc2cccnc12)c1ccccc1Cl` here?
Its solubility kinetic is 0.3 µg/mL (≈ 1.06 µM).

Which solubility kinetic does the source give for `CCOCCn1c(-c2ccccc2)nc2ccccc21` here?
The solubility kinetic was 39.5 µg/mL (≈ 148 µM).

Which solubility kinetic does the source give for `O=C(NCCc1ccc(O)c(O)c1)C1COc2ccccc2O1` (stereo not drawn) here?
Its solubility kinetic is > 47.3 µg/mL.

With `O=C(O)c1cccc(Nc2ccc3nonc3c2[N+](=O)[O-])c1` as the molecule, how does the solubility kinetic read?
Its solubility kinetic is 35.9 µg/mL (≈ 120 µM).

With `O=C(O)CCCNC(=O)/C=C/c1ccco1` as the molecule, how does the solubility kinetic read?
The solubility kinetic was 26.5 µg/mL (≈ 119 µM).

For `Cc1cc(C)cc(C(=O)NCC(=O)OCC(=O)NC2CCCc3ccccc32)c1` (stereo not drawn), which solubility kinetic is on record?
The solubility kinetic was 8.4 µg/mL (≈ 21.3 µM).

For `CC(=O)Nc1ccc(NC(=O)Cc2ccc(-c3ccccc3)cc2)cc1`, which solubility kinetic is on record?
Its solubility kinetic is < 0.4 µg/mL.

For `CC/C(O)=C1\C(=O)CC(C)(C)CC1=NCCc1nc2ccccc2[nH]1`, which solubility kinetic is on record?
Its solubility kinetic is > 50.9 µg/mL.

Which solubility kinetic does the source give for `Cc1ccc(N=C(N)N=C(N)N)cc1` here?
The solubility kinetic was > 28.7 µg/mL.

With `Cc1cc(C)c2nc(SCC(=O)Nc3cc(C)on3)c(C#N)cc2c1` as the molecule, how does the solubility kinetic read?
Its solubility kinetic is < 0.2 µg/mL.

With `Cc1ccccc1OCc1nc(-c2cccnc2)no1` as the molecule, how does the solubility kinetic read?
The solubility kinetic was 30.2 µg/mL (≈ 113 µM).

With `O=C(Nc1ccccc1C(F)(F)F)c1ccccc1Br` as the molecule, how does the solubility kinetic read?
Its solubility kinetic is 39.8 µg/mL (≈ 116 µM).

For `N#Cc1cc2c(nc1Cl)CCC2`, which solubility kinetic is on record?
Its solubility kinetic is 20.2 µg/mL (≈ 113 µM).

Which solubility kinetic does the source give for `O=C(NCCC1CC1(Cl)Cl)Nc1ccccc1` (stereo not drawn) here?
Its solubility kinetic is > 41 µg/mL.

For `Cc1ccc(C(=O)Nc2ccc3c(c2)OCCO3)cc1S(=O)(=O)N1CCOCC1`, which solubility kinetic is on record?
Its solubility kinetic is 41.6 µg/mL (≈ 99.4 µM).

With `CC1CCc2sc(C(=O)OCC(=O)NC(C)C)cc2C1` (stereo not drawn) as the molecule, how does the solubility kinetic read?
Its solubility kinetic is 1.2 µg/mL (≈ 4.06 µM).

For `CCC(=O)NCc1ccc(-c2nc3ncccc3o2)cc1`, which solubility kinetic is on record?
The solubility kinetic was > 42.2 µg/mL.

With `Cc1cc(C)c(S(=O)(=O)Nc2ccncc2)cc1C` as the molecule, how does the solubility kinetic read?
The solubility kinetic was 19.2 µg/mL (≈ 69.5 µM).

For `CC(=O)c1ccc(NC(=S)NC(=O)/C=C/c2ccco2)cc1`, which solubility kinetic is on record?
Its solubility kinetic is 1.4 µg/mL (≈ 4.45 µM).

With `CNc1cc(C)nc(N2CCOCC2)n1` as the molecule, how does the solubility kinetic read?
Its solubility kinetic is > 31.2 µg/mL.

For `O=C(c1cc(S(=O)(=O)N2CCOCC2)c(Cl)cc1Cl)N1CCN(S(=O)(=O)c2cccc(F)c2)CC1`, which solubility kinetic is on record?
Its solubility kinetic is 20.8 µg/mL (≈ 36.7 µM).

Which solubility kinetic does the source give for `CC1CCCN(CCC(=O)c2ccc(Br)cc2)C1.Cl` (stereo not drawn) here?
The solubility kinetic was 33.8 µg/mL.

Which solubility kinetic does the source give for `CCCCn1c(=S)[nH]c2cc(S(=O)(=O)N3CCOCC3)ccc21` here?
The solubility kinetic was > 53.3 µg/mL.

From PubChem BioAssay AID1996
